Source: ChEMBL document CHEMBL3507680, “University of Dundee, Gates Library screen for HepG2 cell viability”

Assay: Human HepG2 cell viability assay in 384 well format
Assay type: toxicity, cell-based
Set-up: dose 125 nL, time 70.5 hour; concentration not given beside the values
Settings: HepG2 cells, read-out: Inhibition

Structure (SMILES) | cytotoxicity at 70.5 h [%]
CCN(C)CC(=O)N1CCC(c2cc(N3CCOCC3)nc(C)n2)CC1 | -11.5
COc1ccc(N2CCN(C(=O)CCn3nccc3C)C(C)C2)cc1 (stereo unspecified) | -3.13
OCC1(O)CCCN(Cc2ccc(-c3cc[nH]n3)s2)CC1 (stereo unspecified) | -9.87
Cn1ccnc1C1CCCN(C(=O)c2ccc3nccnc3c2)C1 (stereo unspecified) | 2.22
Cc1ccn(-c2cncc(C(N)=O)c2)n1 | -14.4
CCOc1ccc2nc(CN3CCC(CN)C3)ccc2c1 (stereo unspecified) | -2.57
CN(Cc1cccc(O)c1)C(=O)c1ccc(CCC(C)(C)O)cc1 | 0.182
CC(=O)N1CCc2c(nc(-c3cccnc3)nc2N(C)CC(O)CO)C1 (stereo unspecified) | -6.57
CN(C)CCn1ccnc1C1CCCN(c2nccc3ccccc23)C1 (stereo unspecified) | 1.12
CC(=O)N[C@@H]1CN(Cc2oc3ccccc3c2C)C[C@H]1c1ccc(C)o1 | -7.22
CCCN(Cc1ccccc1C)C(CC)CO (stereo unspecified) | -7.79
CO[C@@H]1c2ccccc2C2(CCN(C(=O)CNS(C)(=O)=O)CC2)[C@H]1O | 23.4
O=C(CC1COCCN1)NCCc1nc(-c2ccccn2)no1 (stereo unspecified) | -6.55
COc1cc(F)c(C(=O)N2C[C@@H](CN(C)CCO)[C@@H](CO)C2)c(F)c1 | -2.86
COc1ccc(Cc2c(O)nc(SC)n(-c3ccccc3)c2=O)cc1 | 12.6
CCOc1ccc(Cc2c(O)nc(SC)n(-c3ccccc3)c2=O)cc1 | -2.28
COc1cccc(OCc2cc(C(=O)N3CC(O)C3)n[nH]2)c1 | -2.2
CCCOc1ccc(C(=O)N[C@@H]2CCNC[C@H]2O)cc1Cl | 2.76
COc1ccc(Cl)cc1C(C(=O)O)N(C)Cc1ccon1 (stereo unspecified) | 11.7
CCNC(=O)[C@@H]1C[C@H](N)CN1C(=O)Cc1cc(C)ccc1C | -12.9
O=C(C1CCOC1)N1CCC(OCc2ccccc2)CC1 (stereo unspecified) | -5.49

Structure (SMILES) | cytotoxicity at 70.5 h [%]
CN1CCN(C(=O)c2ccc3c(c2)nc(N2CCOCC2)n3C)CC1=O | -5.46
CC1=NN(CC(=O)N2CC[C@@H]3[C@@H](CCC(=O)N3CC(C)C)C2)CC1 | -1.09
O=C(c1cnc(O)cn1)N(Cc1ccsc1)CC1CCCO1 (stereo unspecified) | 25.2
COc1cccc(OCC2CCCN(C(=O)c3ncoc3C3CC3)C2)c1 (stereo unspecified) | -11.7
COc1ncc(-c2cc(-c3ccn(C)c3)nc(N)c2C#N)cn1 | 7.14
CC(C)c1ccn(C2(C(=O)O)CCN(c3cc(C(N)=O)ccn3)CC2)n1 | -3.6
Cc1ccc2c(c1)c(CNC(=O)C1CCN(CC(N)=O)CC1)nn2C | -2.32
Cc1noc(C2CCCCN2C(=O)C2CCN(C(C)C)CC2)n1 (stereo unspecified) | 5.11
COCc1nc(CN2CC(=O)N(C)c3ccccc3C2=O)no1 | -5.63
COCCCC1CCCN(C(=O)CCc2csc(N)n2)C1 (stereo unspecified) | -11.8
Fc1cccc2ncnc(NCCCc3ccncc3)c12 | -4.44
Cc1nn(C)c2ncnc(NCc3nncn3C3CCCCC3)c12 | -6.04
O=C(c1ccco1)N1CCc2ncnc(NCc3ccccn3)c2CC1 | -8.48
O=C(NCc1csc(-c2cccs2)n1)C1NCCc2[nH]cnc21 (stereo unspecified) | -19.8
C=C(C)COc1cccc(CNCCc2c[nH]cn2)c1 | -6.28
CCc1ccc2nc(C)cc(C(=O)NC[C@@H]3CCNC[C@H]3O)c2c1 | 14.5
CC(C)n1cnnc1CN(C)C(=O)c1ccc[nH]1 | 18.8
Cn1cnnc1CN1CCC2(CCCN(C3CCCCC3)C2=O)C1 (stereo unspecified) | -1.45
O=C(c1cc(=O)n(-c2ccccc2)[nH]1)N1CCCC(c2ccn[nH]2)C1 (stereo unspecified) | 48
CCC(C(=O)NCCc1nc(C)cc(C(F)(F)F)n1)n1cccn1 (stereo unspecified) | 20
COc1cccc2c1OCCCN(Cc1c[nH]nc1C(=O)O)C2 | -9

Structure (SMILES) | cytotoxicity at 70.5 h [%]
O=C(CCc1cc(Cl)no1)N1CCCCC1CCN1CCOCC1 (stereo unspecified) | -2.5
CC(=O)NCCC1CCCCN1S(=O)(=O)c1cccc(F)c1 (stereo unspecified) | 19.6
Cc1ccnc(NCCNC(=O)C2CC3(CCNCC3)CN2C)c1 (stereo unspecified) | -3.92
CCCc1nnc(N2CCN(C3CCCC3)CC2)o1 | -14.3
Cc1ccc(C(CNC(=O)c2cc(CC(C)C)nn2C)N(C)C)cc1 (stereo unspecified) | -3.96
CC(=O)c1cc(CN2CCCC2c2nc3ccc(C)cc3[nH]2)cs1 (stereo unspecified) | -3.73
CN1CCN(C[C@H]2CC[C@@H](Cc3ccc(CN4CCCC4)cc3)O2)CC1 | -6.45
Cc1noc(C)c1CN1CCC(c2nnc(Cn3cccn3)n2C)CC1 | -6.21
CC(C)CN(Cc1ccc(O)c(C(=O)O)c1)Cc1ccccn1 | 5.47
c1coc(-c2nc(CNC3CCCNC3)no2)c1 (stereo unspecified) | 1.79
Cc1nc(NC(=O)N2CCCC(N(C)C)C2)nn1C (stereo unspecified) | 31.8
Cc1[nH]c(=O)[nH]c(=O)c1CN1CCCC(CCc2ccc(F)c(F)c2)C1 (stereo unspecified) | -10.6
COCC1CCN(S(=O)(=O)N2C[C@@H](C)[C@@](C)(O)C2)CC1 | -0.99
CC[C@@]1(O)CCN(C(=O)c2ccc(-c3ccco3)cc2)C[C@H]1O | -5.37
CCn1ccnc1C1CCN(Cc2c(F)cccc2F)CC1 | 3.09
CCOc1ccccc1-n1c(-c2cn(CC)nc2C)n[nH]c1=O | -4.81
CN(CCN1CCCCCC1)C(=O)c1c(O)cccc1O | -2.54
CCc1cnc(N2CCCOC(CN3CCCC3)C2)nc1 (stereo unspecified) | 7.5
OCCNc1cc(N2CCN(Cc3ccccc3)C(CCO)C2)ncn1 (stereo unspecified) | -7.07
Cc1cc(CN(C)CC2CCCN(CCc3ccc(Cl)cc3)C2)[nH]n1 (stereo unspecified) | -4.86
CCOCC(O)c1nc2c([nH]1)CC(C)(C)CNC2=O (stereo unspecified) | -11.8

Structure (SMILES) | cytotoxicity at 70.5 h [%]
CC(=O)N1C[C@@H]2CC[C@H](C1)N(Cc1ccc(Cn3cccn3)cc1)C2 | -19.2
CN(CCCc1nccn1C)C(=O)C1CCN(C(=O)C2CCC2)CC1 | 3.53
CCN(Cc1ccccc1)C(=O)CCN1C[C@@H](C(=O)O)[C@H](C2CC2)C1 | -8.23
CCCc1ccc(OC23CCCN(CC2)C3)c(OC)c1 (stereo unspecified) | -9.71
Cn1ncc(NC(=O)Cn2ccc(-c3ccc(F)cc3)n2)n1 | 0.148
Cc1nccn1CCC1CCCCN1Cc1ccc(O)cc1Cl (stereo unspecified) | 15.6
Cc1cccc2sc(NC(=O)CN3CCCC(O)(CO)C3)nc12 (stereo unspecified) | 11
O=C(NCc1cccnc1N1CCCC(O)C1)c1ccc2[nH]nnc2c1 (stereo unspecified) | -25
C[C@@H]1CN(Cc2c[nH]c(CC3CCCC3)n2)CC[C@]1(C)O | -9.37
Fc1ccc(CN2CCCC3(CCN(Cc4ncc[nH]4)C3)C2)cc1F (stereo unspecified) | -0.549
COc1ccc(C(=O)C2CCCN(c3cc(C#N)ccn3)C2)cc1F (stereo unspecified) | -6.04
CN(C)[C@H]1CCCCN(Cc2ccccc2Cn2cccn2)C1 | 2.32
COc1ccc(OC2CCN(C(=O)CCc3nc(Cl)n[nH]3)CC2)cc1 | -4.51
CCn1c(N)nc2cc(C(=O)N3CCCOCC3)cnc21 | -6.56
Clc1cccc(C2CCN(c3ncnc4c3CCNC4)C2)c1 (stereo unspecified) | -1.22
CCc1oc(C(=O)NCCc2cc(O)nc(C)n2)cc1CN1CCCC1 | -6.98
Cc1csc2c(N3CCNC(C(=O)N4CCCC4)C3)ncnc12 (stereo unspecified) | -7.34
CCNC(=O)[C@@H]1C[C@H](N)CN1c1cc(CC)nc(N(C)C)n1 | -4.05
